These results are taken from patent US6310210A, “Camptothecin derivatives” (Kabushiki Kaisha Yakult Honsha, priority 1997, dated 2001).

Usually solubility stands for how much of the substance goes into solution per volume. A lower solubility goes with little dissolved substance.

In brackets after ≈: the same amount, converted by molar mass.

Data set [1] deals with mouse leukemia L1210. Put plainly: Anti-tumor activity: life prolonging effect in mice transplanted intraperitoneally with mouse leukemia L1210 (T/C%). The conditions noted are these: for Anti-tumor activity (T/C%): i.p. day 1, 5 and 9. In kind it is in vivo. Here is the method: 5×10^5 cells of mouse leukemia L1210 were transplanted intraperitoneally to a group of six female CDP1 mice (7 weeks old, body weight 17-19 g). A test substance was administered intraperitoneally on day 1, 5 and 9, and its life prolonging effect was observed. In a case of the administration of a test substance as an acid addition salt, it was dissolved in purified water. The total administration amount was 1.56-400 mg/kg. The anti-tumor activity was expressed by the value (T/C%) in which the ratio of the mean survival days of a drug administered group (T) to the mean survival days of a not administered group (C) is multiplied by 100.

The nature of data set [2]: Solubility of each hydrochloride in purified water. In kind it is physicochemical. As to the method: A corresponding camptothecin-21-(2-dimethylamino) ethylamide derivative (100-200 mg) was added with an aqueous 0.1 N HCl solution (1.05 eq.) and dissolved, if necessary, further by adding purified water. The solution was filtered using MILLEX-GV ([…] Filter Unit), and the filtrate was lyophilized to give the desired hydrochloride.
Table 1: Solubility of each hydrochloride in purified water

A short description of data set [3]: Stability test in water at each pH (phosphate buffer, HPLC). Format: physicochemical. The following applies: for Amount of the compound in test solution: room temperature (about 26° C.). As to the method: 1) Preparation of calibration curve:
1.05 mg of the compound 1 and 1.10 mg of the compound A (Note) were measured, dissolved in acetonitrile 10 ml to give a standard solution. 20 μl of the standard solution was tested by HPLC method (procedure condition 1). The peak area of the compound 1 and the compound A (Note), which is obtained from the chromatograph of the standard solution is measured by an automatic integration method, and the obtained area is plotted against an amount of the compound 1 and the compound A (2.1 μg and 2.2 μg) by 20 μl to prepare a calibration curve.
[HPLC method, procedure condition 1]
Column: Inertsil ODS-3 (5-250), 40 deg.
Mobile phase: 0.01 M potassium dihydrogenphosphate-acetonitrile (3:1)
Detection: UV absorptiometer (254 nm)
About 1 mg (×3) of the compound 1 were measured, dissolved adding a phosphate buffer 10 ml of pH 10.0, 7.0 or 5.4, stirred at room temperature (about 26° C.) to make a test solution. As to each 20 μl of the test solution at the time of dissolution, 3 hr later and 24 hr later, the tests were carried out by the HPLC method (procedure condition 1). The amounts of the compound 1 were measured from the obtained area. The amounts of the compound A in each pH were measured.
The amounts (μg/ml) of the compound 1 and the compound A at the time of dissolution, 3 hr later and 24 hr later in each pH are shown in Table 7.

In the case of `CCc1c2c(nc3ccccc13)-c1cc([C@@](O)(CC)C(=O)NCCN(C)C)c(COC(=O)NC)c(=O)n1C2` [Compound 1, 7-Ethyl-17-methylcarbamoyloxycamptothecin-21-(2-dimethylamino)ethylamide], the “Anti-tumor activity (T/C%)” value in data set [1] (Table 2, total dose 3.13 mg/kg) is 97%; in data set [1] (Table 2, total dose 6.25 mg/kg), 97%; in data set [1] (Table 2, total dose 12.5 mg/kg), 95%; in data set [1] (Table 2, total dose 25 mg/kg), 97%; in data set [1] (Table 2, total dose 50 mg/kg) it was 97%; in data set [1] (Table 2, total dose 100 mg/kg) it was 139%. In addition, in data set [1] (Table 2, total dose 200 mg/kg), the “Anti-tumor activity (T/C%)” value is given as 145%. Besides, the solubility in data set [2] was at least 50 mg/mL. Moreover, the “Amount of the compound in test solution” value turned out to be 118 µg/mL in data set [3] (pH 5.4, 3 hr later); 118 µg/mL in data set [3] (pH 5.4, 24 hr later); 118 µg/mL in data set [3] (pH 5.4, at the time of dissolution); 105 µg/mL in data set [3] (pH 7.0, 3 hr later); 105 µg/mL in data set [3] (pH 7.0, 24 hr later); 105 µg/mL in data set [3] (pH 7.0, at the time of dissolution). In addition, the “Amount of the compound in test solution” value in data set [3] (pH 10.0, 3 hr later) is 106 µg/mL; in data set [3] (pH 10.0, 24 hr later), 97 µg/mL; in data set [3] (pH 10.0, at the time of dissolution) it was 109 µg/mL. Further, the “Stability in aqueous solution (in words)” value in data set [3] (pH 7.0 and 5.4, room temperature) is reported as “stably present at room temperature”. In data set [3] (phosphate buffer, pH 10.0, after 24 hr, read-out: remained in the aqueous solution), the remaining at 24 h amounted to 89%.

For the molecule `CCc1c2c(nc3ccccc13)-c1cc([C@@](O)(CC)C(=O)NCCN(C)C)c(COC(=O)N(C)C)c(=O)n1C2` [Compound 14, 17-Dimethylcarbamoyloxy-7-ethylcamptothecin-21-(2-dimethylamino)ethylamide], the “Anti-tumor activity (T/C%)” value stood at 118% in data set [1] (Table 4, total dose 3.13 mg/kg); 121% in data set [1] (Table 4, total dose 6.25 mg/kg); 126% in data set [1] (Table 4, total dose 12.5 mg/kg); 136% in data set [1] (Table 4, total dose 25 mg/kg); 149% in data set [1] (Table 4, total dose 50 mg/kg); 218% in data set [1] (Table 4, total dose 100 mg/kg). Moreover, the “Anti-tumor activity (T/C%)” value in data set [1] (Table 4, total dose 200 mg/kg) is reported as 523%. The “Anti-tumor activity: fraction in parentheses after T/C% (meaning not given)” value in data set [1] (Table 4, total dose 200 mg/kg, group of six mice) is given as 4/6. Further, the solubility in data set [2] is around 50 mg/mL (≈ 93.3 mM).

Consider `CCCNC(=O)OCc1c([C@@](O)(CC)C(=O)NCCN(C)C)cc2n(c1=O)Cc1c-2nc2ccccc2c1CC` [Compound 3, 7-Ethyl-17-n-propylcarbamoyloxycamptothecin-21-(2-dimethylamino)ethylamide], for which the “Anti-tumor activity (T/C%)” value in data set [1] (Table 2, total dose 3.13 mg/kg) turned out to be 100%; in data set [1] (Table 2, total dose 6.25 mg/kg), 100%; in data set [1] (Table 2, total dose 12.5 mg/kg), 139%; in data set [1] (Table 2, total dose 25 mg/kg), 142%; in data set [1] (Table 2, total dose 50 mg/kg), 147%; in data set [1] (Table 2, total dose 100 mg/kg), 147%. In addition, in data set [1] (Table 2, total dose 200 mg/kg), the “Anti-tumor activity (T/C%)” value is listed as 147%. Besides, in data set [2], the solubility was around 11 mg/mL (≈ 20 mM).
